Among the data in patent publication US12661362B2, “Methods for the prevention and treatment of hearing loss” (Ting Therapeutics LLC, priority 2020, dated 2026) are expression of ggcsh values, retold here.

This experiment has as its system ggcsh. Kind of experiment: Expression of nrf2 downstream gene ggcsh in zebrafish. It counts as in vivo. The conditions noted are these: 0.002-1.48 μM, 6 hours. The protocol: Additionally to FIGS. 6A-6B, but not shown, 5 dpf zebrafish were incubated for 6 hours with vehicle, niclosamide (2 nM to 1.48 μM) and the nrf2 pathway activator […] (DEM) as a positive control, in order to evaluate the effect of niclosamide on ggcsh, a nrf2 downstream target. Ggcsh was previously validated as a Nrf2 downstream target in zebrafish. (Sheets, 2017). Following incubation, the total RNA was isolated from whole fish and processed to measure the induced expression of nrf2 downstream gene ggcsh. […] Additionally, Nrf2a morpholinos morphlinos were prepared, followed by incubation of the zebrafish morphants with cisplatin and/or niclosamide. Zebrafish eggs were injected with 4.5 ng of scrambled morpholino or nrf2a morpholino (5′-[…] SEQ NO: 1). At 3 dpf non-injected and morphant animals were exposed to vehicle, cisplatin (300 μM), cisplatin+niclosamide 18.3 nM or niclosamide alone for 6 hours. Following 1-hour recovery, animals were fixed and processed for immunohistochemistry. Nrf2a KD was confirmed by analyzing expression of Glutathione S-transferase P1 (gstp1), a downstream target, due to lack of proper antibody to detect Nrf2 protein in zebrafish.

On to `O=C(Nc1ccc([N+](=O)[O-])cc1Cl)c1cc(Cl)ccc1O` [Niclosamide, 5-chloro-N-(2-chloro-4-nitrophenyl)-2-hydroxy-benzamide], for which the expression of ggcsh result was “significantly lowered”.
